The results in this text go back to US12667100B2, “Composition comprising benzylamine acaricide and use thereof” (SHANDONG KANGQIAO BIO-TECHNOLOGY CO., LTD, priority 2021, dated 2026).

Where “and” joins values, the source holds several entries; their conditions need not be identical. Equal values may be shown once. Read-outs that look alike come from different tables or passages of the source.

This series deals with Tetranychus cinnabarinus Boi, adult mite. The experiment in a line: whole plant or invertebrate. It counts as in vivo. The protocol: Test subject: Tetranychus cinnabarinus Boi, adult mite, indoor rearing sensitive strain.
Test condition: 25° C. constant temperature incubator, 60% relative humidity, light L:D=14:10
Test solution formulation: according to the test needs, accurately weigh the test sample more than 50 mg by using an electronic analytical balance, mixed with acetone to the required concentration, according to calculation, the sample of acetone solution added to a volumetric flask, diluted by aqueous solution with 0.1 wt % Tween 80 to obtain the required concentration of the solution.
Test method: One true leaf was removed after cutting the seedlings of beans, and one true leaf was added to the hydroponic glass jar after leaving the leaf to access about 50-150 adult Tetranychus cinnabarinus Boi of the same size, and the mite base was counted the next day. The Airbrush method was used to treat the test material with medicinal spray, 1.5 mL of medicinal spray was sprayed for each treatment, and a blank control was set for three treatments.
After spraying and drying naturally, the treated test material was placed in a constant temperature observation room. 72 hours later, the number of live mites was investigated and the mortality rate was calculated. The Bliss method was used for evaluation, and the theoretical mortality rate could be calculated by the following formula: P=Pm+Pn(1−Pm)
Pm is the mortality rate (%) of the target at a concentration of m for the first active component (active component a); Pn is the mortality rate (%) of the target at a concentration of n for the second active component (active component b).

[1] abbreviates: Tetranychus cinnabarinus, 72 h, read-out: 72 h mortality rate.
[2] abbreviates: Tetranychus cinnabarinus, 72 h, single agent 0.01 mg/L, adult mites, 72 h after spraying, read-out: 72 h mortality rate.
[3] abbreviates: Tetranychus cinnabarinus, 72 h, single agent 0.04 mg/L, adult mites, 72 h after spraying, read-out: 72 h mortality rate.
[4] abbreviates: Tetranychus cinnabarinus, 72 h, single agent 0.2 mg/L, adult mites, 72 h after spraying, read-out: 72 h mortality rate.
The mark [5] stands for this setting: Tetranychus cinnabarinus, 72 h, single agent 0.4 mg/L, adult mites, 72 h after spraying, read-out: 72 h mortality rate.
The mark [6] stands for this setting: Tetranychus cinnabarinus, 72 h, single agent 0.8 mg/L, adult mites, 72 h after spraying, read-out: 72 h mortality rate.
The mark [7] stands for this setting: single agent 0.2 mg/L, adult mites, 72 h after spraying.
The mark [8] stands for this setting: single agent 0.4 mg/L, adult mites, 72 h after spraying.
[9] abbreviates: single agent 0.8 mg/L, adult mites, 72 h after spraying.
Setting [10] is: single agent 0.01 mg/L, adult mites, 72 h after spraying.
The mark [11] stands for this setting: single agent 0.04 mg/L, adult mites, 72 h after spraying.
Where [12] appears, read: single agent 1 mg/L, adult mites, 72 h after spraying.
[13] abbreviates: single agent 5 mg/L, adult mites, 72 h after spraying.

For `Clc1ccccc1-c1nnc(-c2ccccc2Cl)nn1` [clofentezine], under setting [1], the mortality at 0.04 µg/mL amounted to 0%, the mortality at 0.2 µg/mL was 0%, the mortality at 1 µg/mL came out at 9.1% and the mortality at 8 µg/mL was found to be 18.2%. The mortality at 40 µg/mL under setting [1] amounted to 41.3%.
On to `COC(=O)c1ccccc1CNc1cc(SCC(F)(F)F)c(C)cc1F` [Compound A1], for which the mortality at 0.01 µg/mL under setting [2] was found to be 0%. Moreover, the mortality at 0.04 µg/mL under setting [3] is 0%. Further, under setting [4], the mortality at 0.2 µg/mL came out at 27.9%. Further, under setting [5], the mortality at 0.4 µg/mL was determined as 40.1%. Further, under setting [6], the mortality at 0.8 µg/mL worked out at 74.6%. For the same molecule, the “72 h mortality rate” value by setting is: under setting [7], 22.2% and 28.1% and 26.8% and 19.8%; under setting [8], 40.4% and 43.3% and 41.7% and 42.3%; under setting [9], 74.3% and 72.6% and 72.7% and 74.1%.
With `C#CCOS(=O)OC1CCCCC1Oc1ccc(C(C)(C)C)cc1` (stereo not drawn) [propargite], under setting [1], the mortality at 0.1 µg/mL is 0%, the mortality at 0.4 µg/mL stood at 0%, the mortality at 4 µg/mL was 3.9% and the mortality at 25 µg/mL came out at 34.1%.
On to `CC[C@H](C)[C@H]1O[C@]2(C=C[C@@H]1C)C[C@@H]1C[C@@H](C/C=C(\C)[C@@H](O[C@H]3C[C@H](OC)[C@@H](O[C@H]4C[C@H](OC)[C@@H](O)[C@H](C)O4)[C@H](C)O3)[C@@H](C)/C=C/C=C3\CO[C@@H]4[C@H](O)C(C)=C[C@@H](C(=O)O1)[C@]34O)O2` [avermectin], for which, under setting [1], the mortality at 0.0005 µg/mL was determined as 0%, the mortality at 0.0025 µg/mL stood at 14.8%, the mortality at 0.01 µg/mL is 37.3% and the mortality at 0.02 µg/mL was 70%.
As for `COC(=O)c1ccccc1CNc1cc(SCC(F)(F)F)c(Cl)cc1F` [Compound A9], the mortality at 0.01 µg/mL under setting [2] is 0%. For the same molecule, the mortality at 0.04 µg/mL under setting [3] was found to be 0%. Under setting [4], the mortality at 0.2 µg/mL is 19.8%. Moreover, the mortality at 0.4 µg/mL under setting [5] is 42.2%. Besides, the mortality at 0.8 µg/mL under setting [6] amounted to 62.3%. Moreover, the “72 h mortality rate” value is, setting by setting: under setting [7], 18.5% and 27.5% and 22.1% and 22.4%; under setting [8], 41.9% and 36.0% and 40.8% and 34.5%; under setting [9], 64.1% and 67.1% and 64.6% and 65.8%.
As to `CCC(C)(C)C(=O)OC1=C(c2ccc(Cl)cc2Cl)C(=O)OC12CCCCC2` [spirodiclofen], the “72 h mortality rate” value is, setting by setting: under setting [10], 0%; under setting [11], 0%; under setting [7], 0%; under setting [8], 9.4%; under setting [12], 24.2%; under setting [13], 56.9%.
Take `Cc1cc(C)c(C2=C(OC(=O)CC(C)(C)C)C3(CCCC3)OC2=O)c(C)c1` [spiromesifen]: the “72 h mortality rate” value under setting [10] stood at 0%; the “72 h mortality rate” value under setting [11] came out at 0%; the “72 h mortality rate” value under setting [7] is 0%; the “72 h mortality rate” value under setting [8] was 14.1%; the “72 h mortality rate” value under setting [12] was 30.4%; the “72 h mortality rate” value under setting [13] is given as 64.9%.
On to `C[C@@H]1[C@@H](c2ccc(Cl)cc2)SC(=O)N1C(=O)NC1CCCCC1` [hexythiazox], for which, under setting [1], the mortality at 0.04 µg/mL stood at 0%, the mortality at 0.2 µg/mL worked out at 12.8%, the mortality at 1 µg/mL worked out at 21.3% and the mortality at 8 µg/mL stood at 36.3%. The mortality at 40 µg/mL under setting [1] amounted to 69.5%.
Regarding `CCn1nc(C)cc1/C(OC(=O)C(C)(C)C)=C(/C#N)c1ccc(C(C)(C)C)cc1` [cyetpyrafen], the “72 h mortality rate” value under setting [10] is 0%; the “72 h mortality rate” value (single agent 0.05 mg/L, adult mites, 72 h after spraying) came out at 2.8%; the “72 h mortality rate” value (single agent 0.1 mg/L, adult mites, 72 h after spraying) was found to be 17.0%; the “72 h mortality rate” value under setting [7] is on record as 37.9%; the “72 h mortality rate” value (single agent 0.5 mg/L, adult mites, 72 h after spraying) turned out to be 75.5%.
Regarding `CCOc1cc(C(C)(C)C)ccc1C1COC(c2c(F)cccc2F)=N1` (stereo not drawn) [etoxazole], under setting [1], the mortality at 0.01 µg/mL was 0%, the mortality at 0.04 µg/mL came out at 0%, the mortality at 0.2 µg/mL amounted to 9.3% and the mortality at 0.4 µg/mL is 21.4%. Under setting [1], the mortality at 1 µg/mL is 26.6% and the mortality at 5 µg/mL stood at 43.6%.

In general, mortality refers to the share of the test organisms that died.
